Patent US20100160454A1, “ANTIMICROBIAL AGENTS, COMPOSITIONS AND PRODUCTS CONTAINING THE SAME, AND METHODS OF USING THE COMPOSITIONS AND PRODUCTS” (Eastman Chemical Company, priority 2008, published 2010)

What was measured:
Assay in all cases: Microbiological challenge testing in BPW broth, graded subculture counts
Type in all cases: cell-based
[1] = system: Bacillus subtilis Wild type
Outline: (§1)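 Bacteria were grown in TSB with 1% dextrose at 35 °C ± 2 °C for at least 96 h, then added to BPW containing 1% dextrose plus test material to give 10^5 to 10^6 CFU/mL at time zero. Broth-alone controls were run in triplicate. Counts were made by spread plating on PCA.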

[2] = system: Escherichia coli ATCC 25922; details: E. Coli
Outline: as §1

[3] = system: Aeromonas sp. Wild type
Outline: as §1

[4] = system: Streptococcus mutans ATCC 35668
Outline: as §1

[5] = system: Proteus vulgaris Wild type
Outline: as §1

[6] = system: Burkholderia cepacia Wild type; details: B. cepacia
Outline: as §1

[7] = system: Staphylococcus aureus ATCC 25923; details: S. aureus
Outline: as §1

CC1(C)C(O)C(C)(C)C1O (stereo not drawn) [TMCBD, 2,2,4,4-tetramethyl-1,3-cyclobutanediol]
B. subtillis growth grade, 3 day ([1]; 0.5% weight/volume): 4 (1000 to 10,000 colonies countable (thus 10,000 CFU/mL to 100,000 CFU/mL)) | B. subtillis growth grade, 14 day ([1]; 0.5% weight/volume): 4 (1000 to 10,000 colonies countable (thus 10,000 CFU/mL to 100,000 CFU/mL)) | B. subtillis growth grade, 30 day ([1]; 0.5% weight/volume): 4 (1000 to 10,000 colonies countable (thus 10,000 CFU/mL to 100,000 CFU/mL)) | B. subtillis growth grade, 3 day ([1]; 1.25% weight/volume): 4 (1000 to 10,000 colonies countable (thus 10,000 CFU/mL to 100,000 CFU/mL)) | B. subtillis growth grade, 14 day ([1]; 1.25% weight/volume): 4 (1000 to 10,000 colonies countable (thus 10,000 CFU/mL to 100,000 CFU/mL)) | B. subtillis growth grade, 30 day ([1]; 1.25% weight/volume): 4 (1000 to 10,000 colonies countable (thus 10,000 CFU/mL to 100,000 CFU/mL)) | B. subtillis growth grade, 3 day ([1]; 2.5% weight/volume): 4 (1000 to 10,000 colonies countable (thus 10,000 CFU/mL to 100,000 CFU/mL)) | B. subtillis growth grade, 14 day ([1]; 2.5% weight/volume): 4 (1000 to 10,000 colonies countable (thus 10,000 CFU/mL to 100,000 CFU/mL)) | B. subtillis growth grade, 30 day ([1]; 2.5% weight/volume): 4 (1000 to 10,000 colonies countable (thus 10,000 CFU/mL to 100,000 CFU/mL)) | B. subtillis growth grade, 3 day ([1]; 5.0% weight/volume): 4 (1000 to 10,000 colonies countable (thus 10,000 CFU/mL to 100,000 CFU/mL)) | B. subtillis growth grade, 14 day ([1]; 5.0% weight/volume): 2 (52 to 100 colonies counted (thus 520 to 1000 CFU/mL)) | B. subtillis growth grade, 30 day ([1]; 5.0% weight/volume): 0 | Grade ([2]; 0.5% (wt/vol), 3 day): 5 (More than 10,000 colonies estimated (thus more than 100,000 CFU/mL)) | Grade ([2]; 0.5% (wt/vol), 14 day): 5 (More than 10,000 colonies estimated (thus more than 100,000 CFU/mL)) | Grade ([2]; 0.5% (wt/vol), 30 day): 5 (More than 10,000 colonies estimated (thus more than 100,000 CFU/mL)) | Grade ([2]; 1.25% (wt/vol), 3 day): 4 (1000 to 10,000 colonies countable (thus 10,000 CFU/mL to 100,000 CFU/mL)) | Grade ([2]; 1.25% (wt/vol), 14 day): 4 (1000 to 10,000 colonies countable (thus 10,000 CFU/mL to 100,000 CFU/mL)) | Grade ([2]; 1.25% (wt/vol), 30 day): 4 (1000 to 10,000 colonies countable (thus 10,000 CFU/mL to 100,000 CFU/mL)) | Grade ([2]; 2.5% (wt/vol), 3 day): 4 (1000 to 10,000 colonies countable (thus 10,000 CFU/mL to 100,000 CFU/mL)) | Grade ([2]; 2.5% (wt/vol), 14 day): 4 (1000 to 10,000 colonies countable (thus 10,000 CFU/mL to 100,000 CFU/mL)) | Grade ([2]; 2.5% (wt/vol), 30 day): 4 (1000 to 10,000 colonies countable (thus 10,000 CFU/mL to 100,000 CFU/mL)) | Grade ([2]; 5.0% (wt/vol), 3 day): 0 | Grade ([2]; 5.0% (wt/vol), 14 day): 0 | Grade ([2]; 5.0% (wt/vol), 30 day): 0 | Aeromonas sp growth grade, 3 day ([3]; 0.5% weight/volume): 5 (More than 10,000 colonies estimated (thus more than 100,000 CFU/mL)) | Aeromonas sp growth grade, 14 day ([3]; 0.5% weight/volume): 4 (1000 to 10,000 colonies countable (thus 10,000 CFU/mL to 100,000 CFU/mL)) | Aeromonas sp growth grade, 30 day ([3]; 0.5% weight/volume): 4 (1000 to 10,000 colonies countable (thus 10,000 CFU/mL to 100,000 CFU/mL)) | Aeromonas sp growth grade, 3 day ([3]; 1.25% weight/volume): 4 (1000 to 10,000 colonies countable (thus 10,000 CFU/mL to 100,000 CFU/mL)) | Aeromonas sp growth grade, 14 day ([3]; 1.25% weight/volume): 4 (1000 to 10,000 colonies countable (thus 10,000 CFU/mL to 100,000 CFU/mL)) | Aeromonas sp growth grade, 30 day ([3]; 1.25% weight/volume): 4 (1000 to 10,000 colonies countable (thus 10,000 CFU/mL to 100,000 CFU/mL)) | Aeromonas sp growth grade, 3 day ([3]; 2.5% weight/volume): 4 (1000 to 10,000 colonies countable (thus 10,000 CFU/mL to 100,000 CFU/mL)) | Aeromonas sp growth grade, 14 day ([3]; 2.5% weight/volume): 2 (52 to 100 colonies counted (thus 520 to 1000 CFU/mL)) | Aeromonas sp growth grade, 30 day ([3]; 2.5% weight/volume): 3 (100 to 1000 colonies (thus 1000 to 10,000 CFU/mL)) | Aeromonas sp growth grade, 3 day ([3]; 5.0% weight/volume): 2 (52 to 100 colonies counted (thus 520 to 1000 CFU/mL)) | Aeromonas sp growth grade, 14 day ([3]; 5.0% weight/volume): 0 | Aeromonas sp growth grade, 30 day ([3]; 5.0% weight/volume): 0 | S. mutans growth grade, 3 day ([4]; 0.5% weight/volume): 4 (1000 to 10,000 colonies countable (thus 10,000 CFU/mL to 100,000 CFU/mL)) | S. mutans growth grade, 13 day ([4]; 0.5% weight/volume): 4 (1000 to 10,000 colonies countable (thus 10,000 CFU/mL to 100,000 CFU/mL)) | S. mutans growth grade, 30 day ([4]; 0.5% weight/volume): 4 (1000 to 10,000 colonies countable (thus 10,000 CFU/mL to 100,000 CFU/mL)) | S. mutans growth grade, 3 day ([4]; 1.25% weight/volume): 4 (1000 to 10,000 colonies countable (thus 10,000 CFU/mL to 100,000 CFU/mL)) | S. mutans growth grade, 13 day ([4]; 1.25% weight/volume): 4 (1000 to 10,000 colonies countable (thus 10,000 CFU/mL to 100,000 CFU/mL)) | S. mutans growth grade, 30 day ([4]; 1.25% weight/volume): 4 (1000 to 10,000 colonies countable (thus 10,000 CFU/mL to 100,000 CFU/mL)) | S. mutans growth grade, 3 day ([4]; 2.5% weight/volume): 3 (100 to 1000 colonies (thus 1000 to 10,000 CFU/mL)) | S. mutans growth grade, 13 day ([4]; 2.5% weight/volume): 1 (0 to 51 colonies counted (thus 10 to 510 CFU/mL based on 0.1-mL sample)) | S. mutans growth grade, 30 day ([4]; 2.5% weight/volume): 0 | S. mutans growth grade, 3 day ([4]; 5.0% weight/volume): 0 | S. mutans growth grade, 13 day ([4]; 5.0% weight/volume): 0 | S. mutans growth grade, 30 day ([4]; 5.0% weight/volume): 0 | P. vulgaris growth grade, 3 day ([5]; 0.5% weight/volume): 4 (1000 to 10,000 colonies countable (thus 10,000 CFU/mL to 100,000 CFU/mL)) | P. vulgaris growth grade, 13 day ([5]; 0.5% weight/volume): 4 (1000 to 10,000 colonies countable (thus 10,000 CFU/mL to 100,000 CFU/mL)) | P. vulgaris growth grade, 30 day ([5]; 0.5% weight/volume): 4 (1000 to 10,000 colonies countable (thus 10,000 CFU/mL to 100,000 CFU/mL)) | P. vulgaris growth grade, 3 day ([5]; 1.25% weight/volume): 3 (100 to 1000 colonies (thus 1000 to 10,000 CFU/mL)) | P. vulgaris growth grade, 13 day ([5]; 1.25% weight/volume): 2 (52 to 100 colonies counted (thus 520 to 1000 CFU/mL)) | P. vulgaris growth grade, 30 day ([5]; 1.25% weight/volume): 0 | P. vulgaris growth grade, 3 day ([5]; 2.5% weight/volume): 4 (1000 to 10,000 colonies countable (thus 10,000 CFU/mL to 100,000 CFU/mL)) | P. vulgaris growth grade, 13 day ([5]; 2.5% weight/volume): 1 (0 to 51 colonies counted (thus 10 to 510 CFU/mL based on 0.1-mL sample)) | P. vulgaris growth grade, 30 day ([5]; 2.5% weight/volume): 0 | P. vulgaris growth grade, 3 day ([5]; 5.0% weight/volume): 0 | P. vulgaris growth grade, 13 day ([5]; 5.0% weight/volume): 0 | P. vulgaris growth grade, 30 day ([5]; 5.0% weight/volume): 0 | Grade ([6]; 0.5% (wt/vol), 3 day): 4 (1000 to 10,000 colonies countable (thus 10,000 CFU/mL to 100,000 CFU/mL)) | Grade ([6]; 0.5% (wt/vol), 14 day): 4 (1000 to 10,000 colonies countable (thus 10,000 CFU/mL to 100,000 CFU/mL)) | Grade ([6]; 0.5% (wt/vol), 30 day): 4 (1000 to 10,000 colonies countable (thus 10,000 CFU/mL to 100,000 CFU/mL)) | Grade ([6]; 1.25% (wt/vol), 3 day): 3 (100 to 1000 colonies (thus 1000 to 10,000 CFU/mL)) | Grade ([6]; 1.25% (wt/vol), 14 day): 2 (52 to 100 colonies counted (thus 520 to 1000 CFU/mL)) | Grade ([6]; 1.25% (wt/vol), 30 day): 4 (1000 to 10,000 colonies countable (thus 10,000 CFU/mL to 100,000 CFU/mL)) | Grade ([6]; 2.5% (wt/vol), 3 day): 1 (0 to 51 colonies counted (thus 10 to 510 CFU/mL based on 0.1-mL sample)) | Grade ([6]; 2.5% (wt/vol), 14 day): 0 | Grade ([6]; 2.5% (wt/vol), 30 day): 0 | Grade ([6]; 5.0% (wt/vol), 3 day): 1 (0 to 51 colonies counted (thus 10 to 510 CFU/mL based on 0.1-mL sample)) | Grade ([6]; 5.0% (wt/vol), 14 day): 0 | Grade ([6]; 5.0% (wt/vol), 30 day): 0 | Grade ([7]; 0.5% (wt/vol), 3 day): 4 (1000 to 10,000 colonies countable (thus 10,000 CFU/mL to 100,000 CFU/mL)) | Grade ([7]; 0.5% (wt/vol), 14 day): 4 (1000 to 10,000 colonies countable (thus 10,000 CFU/mL to 100,000 CFU/mL)) | Grade ([7]; 0.5% (wt/vol), 30 day): 4 (1000 to 10,000 colonies countable (thus 10,000 CFU/mL to 100,000 CFU/mL)) | Grade ([7]; 1.25% (wt/vol), 3 day): 4 (1000 to 10,000 colonies countable (thus 10,000 CFU/mL to 100,000 CFU/mL)) | Grade ([7]; 1.25% (wt/vol), 14 day): 4 (1000 to 10,000 colonies countable (thus 10,000 CFU/mL to 100,000 CFU/mL)) | Grade ([7]; 1.25% (wt/vol), 30 day): 4 (1000 to 10,000 colonies countable (thus 10,000 CFU/mL to 100,000 CFU/mL)) | Grade ([7]; 2.5% (wt/vol), 3 day): 2 (52 to 100 colonies counted (thus 520 to 1000 CFU/mL)) | Grade ([7]; 2.5% (wt/vol), 14 day): 1 (0 to 51 colonies counted (thus 10 to 510 CFU/mL based on 0.1-mL sample)) | Grade ([7]; 2.5% (wt/vol), 30 day): 1 (0 to 51 colonies counted (thus 10 to 510 CFU/mL based on 0.1-mL sample)) | Grade ([7]; 5.0% (wt/vol), 3 day): 0 | Grade ([7]; 5.0% (wt/vol), 14 day): 0 | Grade ([7]; 5.0% (wt/vol), 30 day): 0
